According to the supplement of paper PMC7214452:

Assays:
Experiment in all cases: normalized area under the dose-response curve (viability relative to DMSO control) (fraction); higher = less sensitive (more viable cells)
Settings in all cases: exposure time not given
[1] = test system: AMO1 (cancer type: MM)
Description: (§1)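 25 myeloma and 15 non-Hodgkin lymphoma cell lines were exposed to each of 76 drugs as 7-point log dilutions (0.01 nM–10 µM) in duplicate. Viability was read with CellTiter-Glo and normalised to DMSO (0.1%) and staurosporine (10 µM) plate controls. Normalised AUC was calculated by the trapezoidal method relative to the negative control.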

[2] = test system: XG2 (cancer type: MM)
Description: as §1

[3] = test system: KMS28BM (cancer type: MM)
Description: as §1

[4] = test system: OCI-MY5/Vec (cancer type: MM)
Description: as §1

[5] = test system: EJM (cancer type: MM)
Description: as §1

[6] = test system: KMS28PE (cancer type: MM)
Description: as §1

[7] = test system: Granta-519 (cancer type: Mantle)
Description: as §1

[8] = test system: Mino (cancer type: Mantle)
Description: as §1

[9] = test system: SR-786 (cancer type: TCL)
Description: as §1

[10] = test system: U266 (cancer type: MM)
Description: as §1

[11] = test system: OCI-MY5/CRBN (cancer type: MM)
Description: as §1

[12] = test system: OCI-MY7 (cancer type: MM)
Description: as §1

[13] = test system: KMS18 (cancer type: MM)
Description: as §1

[14] = test system: KMS11 (cancer type: MM)
Description: as §1

[15] = test system: NCI-H929 (cancer type: MM)
Description: as §1

[16] = test system: MM1.R (cancer type: MM)
Description: as §1

[17] = test system: OCI-LY19 (cancer type: DLBCL)
Description: as §1

[18] = test system: HuT 78 (cancer type: TCL)
Description: as §1

[19] = test system: SU-DHL1 (cancer type: TCL)
Description: as §1

[20] = test system: OCI-MY5 (cancer type: MM)
Description: as §1

[21] = test system: KMS12PE (cancer type: MM)
Description: as §1

[22] = test system: Se-Ax (cancer type: TCL)
Description: as §1

[23] = test system: OCI-LY1 (cancer type: DLBCL)
Description: as §1

[24] = test system: FR4 (cancer type: MM)
Description: as §1

[25] = test system: LP1 (cancer type: MM)
Description: as §1

[26] = test system: JeKo-1 (cancer type: Mantle)
Description: as §1

[27] = test system: KMS34 (cancer type: MM)
Description: as §1

[28] = test system: OCI-LY3 (cancer type: DLBCL)
Description: as §1

[29] = test system: SU-DHL6 (cancer type: DLBCL)
Description: as §1

[30] = test system: JVM2 (cancer type: Mantle)
Description: as §1

[31] = test system: KMS26 (cancer type: MM)
Description: as §1

[32] = test system: Karpas-299 (cancer type: TCL)
Description: as §1

[33] = test system: RPMI 8226 (cancer type: MM)
Description: as §1

[34] = test system: SKMM2 (cancer type: MM)
Description: as §1

[35] = test system: L363 (cancer type: MM)
Description: as §1

[36] = test system: SU-DHL2 (cancer type: DLBCL)
Description: as §1

[37] = test system: My-La (cancer type: TCL)
Description: as §1

[38] = test system: MM1.S (cancer type: MM)
Description: as §1

[39] = test system: OPM2 (cancer type: MM)
Description: as §1

[40] = test system: JJN3 (cancer type: MM)
Description: as §1

Compound	normalized area under the dose-response curve [1]	normalized area under the dose-response curve [2]	normalized area under the dose-response curve [3]	normalized area under the dose-response curve [4]	normalized area under the dose-response curve [5]	normalized area under the dose-response curve [6]	normalized area under the dose-response curve [7]	normalized area under the dose-response curve [8]	normalized area under the dose-response curve [9]	normalized area under the dose-response curve [10]	normalized area under the dose-response curve [11]	normalized area under the dose-response curve [12]	normalized area under the dose-response curve [13]	normalized area under the dose-response curve [14]	normalized area under the dose-response curve [15]	normalized area under the dose-response curve [16]	normalized area under the dose-response curve [17]	normalized area under the dose-response curve [18]	normalized area under the dose-response curve [19]	normalized area under the dose-response curve [20]	normalized area under the dose-response curve [21]	normalized area under the dose-response curve [22]	normalized area under the dose-response curve [23]	normalized area under the dose-response curve [24]	normalized area under the dose-response curve [25]	normalized area under the dose-response curve [26]	normalized area under the dose-response curve [27]	normalized area under the dose-response curve [28]	normalized area under the dose-response curve [29]	normalized area under the dose-response curve [30]	normalized area under the dose-response curve [31]	normalized area under the dose-response curve [32]	normalized area under the dose-response curve [33]	normalized area under the dose-response curve [34]	normalized area under the dose-response curve [35]	normalized area under the dose-response curve [36]	normalized area under the dose-response curve [37]	normalized area under the dose-response curve [38]	normalized area under the dose-response curve [39]	normalized area under the dose-response curve [40]
N#CC[C@H](C1CCCC1)n1cc(-c2ncnc3[nH]ccc23)cn1 [Ruxolitinib]	0.911	0.804	0.913	0.898	0.886	0.879	0.925	0.983	0.83	0.833	0.993	0.89	0.978	0.87	0.91	0.85	0.972	0.853	0.713	0.853	0.91	0.828	0.997	0.927	0.861	1.01	0.708	0.944	0.928	0.774	0.802	0.742	0.997	0.958	0.863	0.959	0.775	0.91	0.931	0.894
O=C(/C=C\n1cnc(-c2cc(C(F)(F)F)cc(C(F)(F)F)c2)n1)NNc1cnccn1 [Selinexor]	0.182	0.256	0.62	0.0963	0.389	0.41	0.705	0.507	0.306	0.415	0.105	0.13	0.446	0.126	0.25	0.23	0.38	0.227	0.277	0.151	0.47	0.483	0.634	0.703	0.446	0.43	0.313	0.643	0.789	0.407	0.42	0.553	0.424	0.598	0.153	0.697	0.469	0.18	0.411	0.468
CNC(=O)c1cc(Oc2ccc(NC(=O)Nc3ccc(Cl)c(C(F)(F)F)c3)cc2)ccn1 [Sorafenib]	0.578	0.543	0.611	0.499	0.663	0.752	0.877	0.872	0.824	0.45	0.589	0.59	0.471	0.535	0.57	0.61	0.873	0.704	0.576	0.459	0.6	0.655	0.913	0.594	0.495	0.922	0.239	0.955	0.937	0.747	0.634	0.812	0.546	0.56	0.578	0.901	0.836	0.57	0.539	0.435
CCN(CC)CCNC(=O)c1c(C)[nH]c(/C=C2\C(=O)Nc3ccc(F)cc32)c1C [Sunitinib]	0.519	0.46	0.739	0.82	0.587	0.519	0.863	0.761	0.652	0.698	0.816	0.72	0.665	0.641	0.56	0.61	0.794	0.536	0.541	0.576	0.7	0.69	0.818	0.681	0.651	0.729	0.459	0.892	0.875	0.605	0.714	0.722	0.538	0.734	0.648	0.8	0.772	0.58	0.56	0.638
CO[C@H]1C[C@@H]2CC[C@@H](C)[C@@](O)(O2)C(=O)C(=O)N2CCCC[C@H]2C(=O)O[C@H]([C@H](C)C[C@@H]2CC[C@@H](OC(=O)C(C)(CO)CO)[C@H](OC)C2)CC(=O)[C@H](C)/C=C(\C)[C@@H](O)[C@@H](OC)C(=O)[C@H](C)C[C@H](C)/C=C/C=C/C=C/1C [Temsirolimus]	0.695	0.725	0.859	0.884	0.823	0.696	0.695	0.691	0.745	0.752	0.772	0.79	0.754	0.752	0.74	0.68	0.697	0.722	0.71	0.775	0.69	0.663	0.685	0.789	0.746	0.744	0.559	0.648	0.72	0.559	0.978	0.585	0.763	0.912	0.7	0.576	0.764	0.63	0.749	0.774
C[C@@H]1CCN(C(=O)CC#N)C[C@@H]1N(C)c1ncnc2[nH]ccc12 [Tofacitinib]	0.901	0.838	0.962	1.02	0.941	0.936	0.94	0.957	0.856	0.874	0.97	0.95	1.01	0.933	0.92	0.92	0.996	0.879	0.97	0.944	1.01	0.929	0.994	1	0.858	1.05	0.89	0.952	0.969	0.931	0.957	0.891	1	0.978	0.904	0.93	0.877	0.85	0.938	0.966
CC(=O)Nc1cccc(-n2c(=O)n(C3CC3)c(=O)c3c(Nc4ccc(I)cc4F)n(C)c(=O)c(C)c32)c1 [Trametinib]	0.575	0.727	0.861	0.943	0.838	0.867	0.913	0.948	0.877	0.922	0.969	0.67	0.779	0.869	0.6	0.67	0.898	0.672	0.501	0.764	0.8	0.713	0.908	0.967	0.64	0.986	0.681	0.865	0.841	0.561	0.774	0.794	0.909	0.964	0.835	0.77	0.868	0.71	0.719	0.858
COc1cc2/c(=N/c3ccc(Br)cc3F)nc[nH]c2cc1OCC1CCN(C)CC1 [Vandetanib]	0.767	0.726	0.985	0.908	0.672	0.844	0.892	0.921	0.961	0.746	0.95	0.96	0.774	0.777	0.87	0.87	0.969	0.892	0.77	0.784	0.95	0.784	0.918	0.922	0.684	0.937	0.623	0.993	0.96	0.773	0.962	0.896	0.905	0.963	0.795	0.911	0.906	0.86	0.861	0.873
